Measurements reported in ChEMBL document CHEMBL1152287, “Structure-activity relationships of acetylcholinesterase noncovalent inhibitors based on a polyamine backbone. 4. Further investigation on the inner spacer” (J Med Chem, 2008).
pIC50: −log10 of the molar value.

What was measured:
[1] = molecular target: T1, Amyloid-beta precursor protein (Homo sapiens, UniProt P05067); assay: Inhibition of self-induced amyloid beta (1-40) aggregation by thioflavin T formation assay
Acetylcholinesterase = Acetylcholinesterase (Homo sapiens, UniProt P22303); assay: Inhibition of human recombinant AChE by Ellman's assay
[2] = molecular target: T1, Amyloid-beta precursor protein; assay: Inhibition of self-induced amyloid beta (1-40) aggregation at 10 uM by thioflavin T formation assay
Cholinesterase = Cholinesterase (Homo sapiens, UniProt P06276); assay: Inhibition of human serum BChE by Ellman's assay
Chain of Cholinesterase (P06276 whole entry): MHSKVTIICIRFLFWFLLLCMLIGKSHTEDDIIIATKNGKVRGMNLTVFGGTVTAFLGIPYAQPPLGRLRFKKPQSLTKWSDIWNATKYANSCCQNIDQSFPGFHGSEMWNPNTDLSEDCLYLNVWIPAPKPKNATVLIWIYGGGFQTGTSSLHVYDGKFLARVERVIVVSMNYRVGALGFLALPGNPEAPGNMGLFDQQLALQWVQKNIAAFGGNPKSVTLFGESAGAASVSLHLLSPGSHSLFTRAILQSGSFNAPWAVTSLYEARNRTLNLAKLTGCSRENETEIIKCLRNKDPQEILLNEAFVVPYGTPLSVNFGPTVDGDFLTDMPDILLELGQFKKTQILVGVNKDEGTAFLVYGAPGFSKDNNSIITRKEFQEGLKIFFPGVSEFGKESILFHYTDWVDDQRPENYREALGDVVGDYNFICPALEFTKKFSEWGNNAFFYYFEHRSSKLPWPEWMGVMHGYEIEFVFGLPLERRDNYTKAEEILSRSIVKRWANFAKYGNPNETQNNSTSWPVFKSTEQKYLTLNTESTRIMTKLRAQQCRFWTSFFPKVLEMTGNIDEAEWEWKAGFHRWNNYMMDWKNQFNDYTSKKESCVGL

T1 sequence (P05067 whole entry): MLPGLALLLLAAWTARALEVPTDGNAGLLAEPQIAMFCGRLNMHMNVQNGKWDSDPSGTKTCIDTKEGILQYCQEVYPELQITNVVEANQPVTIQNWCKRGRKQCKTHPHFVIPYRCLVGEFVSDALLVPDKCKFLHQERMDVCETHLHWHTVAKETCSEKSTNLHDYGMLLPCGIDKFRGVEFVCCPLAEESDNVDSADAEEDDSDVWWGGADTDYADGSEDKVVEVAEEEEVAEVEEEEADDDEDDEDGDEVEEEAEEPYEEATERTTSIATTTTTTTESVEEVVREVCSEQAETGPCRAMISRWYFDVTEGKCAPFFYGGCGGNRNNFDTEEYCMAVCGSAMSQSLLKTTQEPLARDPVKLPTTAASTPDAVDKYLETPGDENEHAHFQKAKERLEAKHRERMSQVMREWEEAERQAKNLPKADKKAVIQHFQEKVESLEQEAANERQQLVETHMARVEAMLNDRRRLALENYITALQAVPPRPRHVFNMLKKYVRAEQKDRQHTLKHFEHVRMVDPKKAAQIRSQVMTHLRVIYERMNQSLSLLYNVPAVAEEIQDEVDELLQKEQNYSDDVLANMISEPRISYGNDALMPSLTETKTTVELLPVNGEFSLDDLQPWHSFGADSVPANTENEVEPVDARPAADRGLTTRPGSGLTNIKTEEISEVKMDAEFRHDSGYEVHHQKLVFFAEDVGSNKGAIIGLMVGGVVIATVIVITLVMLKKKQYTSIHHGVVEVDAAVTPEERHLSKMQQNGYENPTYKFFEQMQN
Chain of Acetylcholinesterase (P22303 whole entry): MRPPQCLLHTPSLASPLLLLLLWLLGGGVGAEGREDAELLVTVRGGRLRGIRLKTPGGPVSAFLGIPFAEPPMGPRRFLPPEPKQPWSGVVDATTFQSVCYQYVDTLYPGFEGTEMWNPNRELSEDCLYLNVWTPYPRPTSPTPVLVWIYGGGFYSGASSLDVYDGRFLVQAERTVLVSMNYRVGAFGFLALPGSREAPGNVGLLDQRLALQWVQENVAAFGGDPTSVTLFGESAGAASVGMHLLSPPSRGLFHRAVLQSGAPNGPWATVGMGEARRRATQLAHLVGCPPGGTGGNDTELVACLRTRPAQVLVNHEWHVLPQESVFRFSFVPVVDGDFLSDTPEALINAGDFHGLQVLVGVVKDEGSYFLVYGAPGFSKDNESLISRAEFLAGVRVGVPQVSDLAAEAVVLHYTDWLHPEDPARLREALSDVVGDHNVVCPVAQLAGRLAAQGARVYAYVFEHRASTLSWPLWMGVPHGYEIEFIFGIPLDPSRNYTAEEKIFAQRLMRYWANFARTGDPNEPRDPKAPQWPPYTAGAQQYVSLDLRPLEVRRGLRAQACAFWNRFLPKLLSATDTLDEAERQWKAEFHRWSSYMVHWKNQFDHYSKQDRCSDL

Row | SMILES | pIC50 [1] | pIC50 (Acetylcholinesterase) | inhibition [2] [%] | pIC50 (Cholinesterase)
1 | CCN(CCCCCCN1C(=O)c2ccc3c4c(ccc(c24)C1=O)C(=O)N(CCCCCCN(CC)Cc1ccccc1OC)C3=O)Cc1ccccc1OC | 5.01 | 9.43 | 54.5 | 5.72
2 | CCN(CCCCCCn1c(=O)c2cc3c(=O)n(CCCCCCN(CC)Cc4ccccc4OC)c(=O)c3cc2c1=O)Cc1ccccc1OC | – | 8.11 | < 5 | 5.52
3 | CCN(CCCCCCN1CC(=O)N(CCCCCCN(CC)Cc2ccccc2OC)CC1=O)Cc1ccccc1OC | – | 7.80 | 4.8 | 5.68
4 | CCN(CCCCCCN1CCN(CCCCCCN(CC)Cc2ccccc2OC)C(=O)C1=O)Cc1ccccc1OC | – | 7.16 | – | 4.99
5 | CCN(CCCCCC(=O)N1Cc2ccc3c4c(ccc(c24)C1)CN(C(=O)CCCCCN(CC)Cc1ccccc1OC)C3)Cc1ccccc1OC | – | 8.32 | 12.7 | 5.98
6 | CCN(CCCCCCN1C(=O)c2cccc3cccc(c23)C1=O)Cc1ccccc1OC | – | 7.27 | < 5 | 6.38
7 | CCN(CCCCCCN1CCN(CCCCCCN(CC)Cc2ccccc2OC)C1=O)Cc1ccccc1OC | – | 7.14 | < 5 | 6.06
8 | CCN(CCCCCC(=O)N1CCN(C(=O)CCCCCN(CC)Cc2ccccc2OC)CC1)Cc1ccccc1OC | – | 7.59 | < 5 | 4.97
9 | CCN(CCCCCCn1c(=O)c(=O)n(CCCCCCN(CC)Cc2ccccc2OC)c2ccccc21)Cc1ccccc1OC | – | 8.85 | 8.8 | 7.02
10 | CCN(CCCCCC(=O)N[C@H]1CCCC[C@@H]1NC(=O)CCCCCN(CC)Cc1ccccc1OC)Cc1ccccc1OC (racemic) | – | 5.26 | – | 4.43
11 | CCN(CCCCCC(=O)N[C@H]1CCCC[C@H]1NC(=O)CCCCCN(CC)Cc1ccccc1OC)Cc1ccccc1OC | – | 5.38 | – | 4.51
12 | CCN(CCCCCC(=O)N1CCC(C2CCN(C(=O)CCCCCN(CC)Cc3ccccc3OC)CC2)CC1)Cc1ccccc1OC | – | – | 13.7 | –
13 | CCN(CCCCCCN1C(=O)c2ccc(-c3ccc4c(c3)C(=O)N(CCCCCCN(CC)Cc3ccccc3OC)C4=O)cc2C1=O)Cc1ccccc1OC | – | 7.85 | 16.5 | 6.53
14 | CCN(CCCCCC(=O)N[C@H]1CC[C@H](NC(=O)CCCCCN(CC)Cc2ccccc2OC)CC1)Cc1ccccc1OC | – | 5.07 | – | 4.60
15 | COc1ccccc1CN(C)CCCCCC(=O)N(C)CCCCCCCCN(C)C(=O)CCCCCN(C)Cc1ccccc1OC | – | – | 20.3 | –
